Patent publication US5759768A, “Assays for factors affecting circularization of DNA, assays for factors affecting DNA integration, factors, and uses thereof” (priority 1995, dated 1998)
Read-outs that look alike come from different tables or passages of the source.

Assays:
Type in all cases: biochemical, HIV-1
[1] = test system: linear viral DNA (circularization)
Protocol: (§1) The chronically HIV-1 infected Molt IIIB human T cell line (HTLV IIIB virus strain) was the source of virus for cell-free infections. This human T cell line constitutively produces a low level of the HTLV-111B strain of HIV-1. Culture supernatant containing a high concentration of virus was prepared by incubating 300×10^6 Molt IIIB cells in 50 ml fresh RPMI 1640 medium containing 20% fetal calf serum and 10 ng of phorbol 12-myristate 13-acetate per ml for 20-24 hours. […] Cytoplasmic extracts (3 ml) were prepared 4-4.5 hours post-infection, by a modification of the procedure of Brown et al., Cell 49: 342-356 (1987).
(§2) At specified times after infection, cells were washed twice with buffer K (20 mM Hepes, pH 7.4, 150 mM KCl, 5 mM MgCl2, 1 mM dithiothreitol, […]) and then lysed at a concentration of 33×10^6 cells per ml in the same buffer containing 0.025% digitonin or 0.025% Triton X-100. Cells were extracted for 10 minutes at room temperature, and the lysate was centrifuged at 1000×g for 3 minutes, and is referred to as "cytoplasmic extract". Cytoplasmic extract was the source of viral DNA for analyses in the assays described below. The pellet from the initial low-speed centrifugation contained cell debris and intact nuclei and is called the "nuclear pellet". Cell extracts from uninfected SupT1 cells were prepared in the same manner.
Viral DNA present in cytoplasmic extracts was deproteinated by incubation with proteinase K (1 mg/ml)/10 mM EDTA/0.5% SDS for 1 hour at 55° C. Samples were extracted successively with phenol/chloroform [1:1 (vol/vol)] and chloroform. DNA was ethanol-precipitated, washed with 70% ethanol, resuspended in 10 mM Tris.HCI (pH 7.4), and treated with RNase A (20 μpg/ml)for 1 hour at […]. before analysis by agarose gel electrophoresis and Southern blotting.
(§3) DNA samples were layered on 0.8% agarose gels and electrophoresed at 1 V/cm for 15 hour in Tris/acetate/EDTA buffer. After electrophoresis, DNA was blotted by capillary action onto nitrocellulose (0.45 μm, Schleicher & Schuell).
Cell extracts were prepared from cells four to five hours after infection with HIV-1, using the above-described methods to yield fully functional viral preintegration complexes. […] In all cases, a HIV-1 LTR-containing DNA fragment was used as a hybridization probe. Therefore, only LTR-containing DNA fragments are detected. […] Lane 5: Unintegrated viral DNA prepared by Hirt extraction of SupT1 cells infected 24 hours earlier with concentrated HIV-1. […] Viral DNA was purified from extracts incubated with 1 mM ATP for 15 minutes (lanes 1 and 4), with 1 mM ATP for 45 minutes (lanes 3 and 6), or with 1 mM ATPγS for 45 minutes (lanes 2 and 5). Lanes 1-3: uncut viral DNA; lanes 4-6: viral DNA was cut with SalI prior to electrophorosis. Lane 7: linear viral DNA, prepared from untreated extracts was digested with SalI prior to electrophorosis. Lane 8: unintegrated viral DNA prepared by Hirt extraction of infected cells, as described with respect to FIG. 14, digested with SalI prior to electrophoresis. […] Lanes 1-3. Viral DNA prepared from extracts treated with 1 mM ATP for 15 minutes, 30 minutes and 45 minutes, respectively. Lane 4: Viral DNA prepared from extract treated with 1 mM ATPγS for 45 minutes. Lanes 5-7: products of reactions shown in lanes 1-3, respectively, digested with SalI and PstI prior to electrophoresis. Lane 8: SalI, PstI digestion of viral DNA prepared from extract treated with 1 mM ATP for 90 minutes. Lane 9: SalI, PstI digestion of reaction products shown in lane 4. Lane 10: SalI, PstI digestion of unintegrated viral DNA prepared by Hirt extraction of infected cells.

[2] = test system: purified linear viral DNA; assay: Circularization of purified linear viral DNA in cytoplasmic extracts of uninfected SupT1 cells; conditions: 1 mM, 37° C., 45 min
Protocol: Further evidence of a role for host proteins in the formation of the 1-LTR and simple 2-LTR circular forms of viral DNA was obtained by testing the ability of uninfected cell extracts to mediate the circularization of purfied viral DNA. Linear viral DNA was prepared from cytoplasmic extracts of uninfected cells by SDS-proteinase K treatment and phenol extraction. The purfied DNA was added to cytoplasmic extracts prepared form uninfected SupT1 cells, in the presence or absence of added ATP.
Linear viral DNA was purified from cytoplasmic extracts of cells 4 hours post-infection as described above. In FIG. 22, a purified linear viral DNA was added to cytoplasmic extracts from uninfected SupT1 cells and incubated at 37° C. for 45 minutes. The uninfected SupT1 cells used for the preparation of extracts were either untreated (lanes 3-11) or cultured in the presence of 10 ng/ml phorbol 12-myristate 13-acetate for six hours prior to extraction (lane 2). […] Lanes 2-11: reaction products following incubation of purified linear viral DNA in uninfected extracts containing 1 mM ATP (lanes 2 and 3), nothing added (lane 4), 1 mM dATP (lane 5), 1 mM UTP (lane 6), 1 mM CTP (lane 7), 1 mM GTP (lane 8), 1 mM ATPγS (lane 9), or 1 mM ADP (lane 10). Lane 11: uninfected SupT1 cell extract was treated with proteinase K for 10 minutes at 37° C., then linear viral DNA was added and incubation continued for 45 minutes. In FIG. 23, lanes 1, 2, 4 and 5: purified linear viral DNA was incubated with T4 DNA ligase (lane 1), T4 polynucleotide kinase and T4 DNA ligase (lane 2), Klenow fragment of E. coli DNA polymerase I and T4 DNA ligase […], or Klenow fragment, T4 polynucleotide kinase, and T4 DNA ligase (lane 4). Lanes 3 and 6: in vitro circularization reaction products generated in cell extracts, included as size standards. Lane 3: cytoplasmic extracts from infected cells were incubated with […] for 45 minutes; lane 6: purified linear viral DNA was incubated with cytoplasmic extract from uninfected SupT1 cells in the presence of 1 mM ATP for 45 minutes. The possibility that a host DNA ligase was responsible for the formation of the simple 2-LTR circles was examined by testing the ability of phage T4 ligase to catalyze the circularization of linear viral DNA. […] Restriction endonuclease analysis of the reaction products formed in the presence of both Klenow fragment and T4 DNA ligase confirmed the formation of new 2-LTR junctions (not shown). […] This observation is consistent with previous reports that linear viral DNA prepared from cells infected with the murine leukemia virus [Fujiwara and Mizuuchi, Cell, 54:497-504 (1988) and HIV-1 [Pauza, Virology, 179:886-887 (1990)] consists of a mixture of molecules that are either blunt-ended or recessed by two nucleotides at each 3'-terminus. The removal of the two terminal nucleotides is mediated by the viral integrase as a necessary step in the process of integration [Roth et al., Cell 58: 47-54 (1989)]. […] This would explain the requirement of DNA polymerase for the subsequent joining of the ends of viral DNA by DNA ligase.

[3] = test system: viral DNA integrated into .phi.X174 target DNA; conditions: for inhibition of integration: 90 min incubation
Protocol: as §1, §2, §3
In Vitro Integration Reaction
Pst I-linearized (replicative form III) .phi.X174 DNA, relaxed circular (replicative form II) .phi.X174 DNA, and single-stranded M13 DNA were used as targets for the in vitro integration of viral DNA. Target DNA was added to cytoplasmic extracts of intected SupT1 cells to a concentration of 10 μg/ml, and reaction mixtures were incubated at […]. Reactions, were stopped by the addition of SDS and proteinase K.
Cytoplasmic extracts prepared from SupT1 cells 4 hours after infection with HIV-1 were incubated with exogenously added target DNA under integration reaction conditions. Products of the reactions were analyzed by Southern blot hybridization. The time course of integration into linear .phi.X174 DNA target was determined. Target DNA was added to the extract and the reaction was stopped after 0,5,15,30, or 45 minutes of incubation at 37° C. (FIG. 11, lanes a-e, respectively). Purified linear viral DNA was incubated for 1 hour at 37° C. with cytoplasmic extract prepared from uninfected SupT1 cells (lane f). […] Arrows in the Figure indicate the positions of viral DNA products. L, linear viral DNA:I, integration product. Integration was detected by the shift of linear viral DNA on Southern blots from the characteristic 9.7-kilobase (kb) position to a position corresponding to viral DNA plus target DNA.

Nc1ncnc2c1ncn2[C@@H]1O[C@H](COP(=O)(O)OP(=O)(O)O)[C@@H](O)[C@H]1O [ADP]
circular DNA forms observed ([1]; 1 mM, 37° C., 45 min): No circular DNA forms were observed

Nc1ncnc2c1ncn2[C@@H]1O[C@H](COP(=O)(O)O)[C@@H](O)[C@H]1O [AMP]
circular DNA forms observed ([1]; 1 mM, 37° C., 45 min): No circular DNA forms were observed

Nc1ccn([C@@H]2O[C@H](COP(=O)(O)OP(=O)(O)OP(=O)(O)O)[C@@H](O)[C@H]2O)c(=O)n1 [CTP, cytosine triphosphate]
induction of 1-LTR circular form [1]: induced the formation of only a small amount of the 1-LTR circular form | induction of 2-LTR circles [1]: induced the formation of 2-LTR circles | 1-LTR circles from purified linear viral DNA [2]: able to induce the formation of 1-LTR circles | 2-LTR circles from purified linear viral DNA [2]: failed to induce the formation of detectable 2-LTR circles

Nc1nc2c(ncn2[C@@H]2O[C@H](COP(=O)(O)OP(=O)(O)O)[C@@H](O)[C@H]2O)c(=O)[nH]1 [GDP]
circular DNA forms observed ([1]; 1 mM, 37° C., 45 min): No circular DNA forms were observed

Nc1nc2c(ncn2[C@@H]2O[C@H](COP(=O)(O)OP(=O)(O)OP(=O)(O)O)[C@@H](O)[C@H]2O)c(=O)[nH]1 [GTP, guanosine triphosphate]
induction of 1-LTR circular form ([1]; 1 mM, 37° C., 45 min): induced the formation of only a small amount of the 1-LTR circular form | induction of 2-LTR circles ([1]; 1 mM, 37° C., 45 min): induced the formation of 2-LTR circles

[Cl-].[Na+] [NcCl]
Relative activity, % of standard [3]: 100 % of standard

O=c1ccn([C@@H]2O[C@H](COP(=O)(O)OP(=O)(O)OP(=O)(O)O)[C@@H](O)[C@H]2O)c(=O)[nH]1 [UTP]
induction of 1-LTR circular form ([1]; 1 mM, 37° C., 45 min): induced the formation of only a small amount of the 1-LTR circular form | induction of 2-LTR circles ([1]; 1 mM, 37° C., 45 min): induced the formation of 2-LTR circles | 1-LTR circles from purified linear viral DNA [2]: able to induce the formation of 1-LTR circles | 2-LTR circles from purified linear viral DNA [2]: failed to induce the formation of detectable 2-LTR circles

Nc1ncnc2nc[nH]c12 [adenine]
circular DNA forms observed ([1]; 1 mM, 37° C., 45 min): No circular DNA forms were observed

Nc1ncnc2c1ncn2[C@@H]1O[C@H](CO)[C@@H](O)[C@H]1O [adenosine]
circular DNA forms observed ([1]; 1 mM, 37° C., 45 min): No circular DNA forms were observed

CC[C@@]1(O)C(=O)OCc2c1cc1n(c2=O)Cc2cc3ccccc3nc2-1 [camptothecin]
inhibition of integration ([3]; 5 μM): about 50% | inhibition of integration ([3]; 50 μM): about 100%

Nc1ncnc2c1ncn2[C@@H]1O[C@H](CO)C[C@H]1O [cordycepin, 3'-deoxyadenosine]
circular DNA forms observed ([1]; 1 mM, 37° C., 45 min): No circular DNA forms were observed

Nc1cc[nH]c(=O)n1 [cytosine]
circular DNA forms observed ([1]; 1 mM, 37° C., 45 min): No circular DNA forms were observed

Nc1ncnc2c1ncn2[C@H]1C[C@H](O)[C@@H](COP(=O)(O)OP(=O)(O)OP(=O)(O)O)O1 [dATP, deoxyadenosine triphosphate]
induction of both circular forms ([1]; 1 mM, 37° C., 45 min): induced both circular forms with an efficiency comparable to ATP | 1-LTR circles from purified linear viral DNA [2]: able to induce the formation of 1-LTR circles | 2-LTR circles from purified linear viral DNA [2]: failed to induce the formation of detectable 2-LTR circles

Nc1nc2c(ncn2[C@H]2CC[C@@H](COP(=O)(O)OP(=O)(O)OP(=O)(O)O)O2)c(=O)[nH]1 [dd-GTP]
induction of 1-LTR circular form ([1]; 1 mM, 37° C., 45 min): unable to induce detectable amounts of the 1-LTR circular forms | induction of 2-LTR circles ([1]; 1 mM, 37° C., 45 min): induced the formation of 2-LTR circles

Nc1ncnc2c1ncn2[C@H]1CC[C@@H](COP(=O)(O)OP(=O)(O)OP(=O)(O)O)O1 [ddATP, dideoxyadenesine triphosphate]
induction of 1-LTR circular form ([1]; 1 mM, 37° C., 45 min): unable to induce detectable amounts of the 1-LTR circular forms | induction of 2-LTR circles ([1]; 1 mM, 37° C., 45 min): induced the formation of 2-LTR circles

Nc1ccn([C@H]2CC[C@@H](COP(=O)(O)OP(=O)(O)OP(=O)(O)O)O2)c(=O)n1 [ddCTP]
induction of 1-LTR circular form ([1]; 1 mM, 37° C., 45 min): unable to induce detectable amounts of the 1-LTR circular forms | induction of 2-LTR circles ([1]; 1 mM, 37° C., 45 min): induced the formation of 2-LTR circles

Cc1cn([C@H]2CC[C@@H](COP(=O)(O)OP(=O)(O)OP(=O)(O)O)O2)c(=O)[nH]c1=O [ddTTP]
induction of 1-LTR circular form ([1]; 1 mM, 37° C., 45 min): unable to induce detectable amounts of the 1-LTR circular forms | induction of 2-LTR circles ([1]; 1 mM, 37° C., 45 min): induced the formation of 2-LTR circles

Nc1nc2nc[nH]c2c(=O)[nH]1 [guanine]
circular DNA forms observed ([1]; 1 mM, 37° C., 45 min): No circular DNA forms were observed

Nc1nc2c(ncn2[C@@H]2O[C@H](CO)[C@@H](O)[C@H]2O)c(=O)[nH]1 [guanosine]
circular DNA forms observed ([1]; 1 mM, 37° C., 45 min): No circular DNA forms were observed

O=c1cc[nH]c(=O)[nH]1 [uracil]
circular DNA forms observed ([1]; 1 mM, 37° C., 45 min): No circular DNA forms were observed

alkaline phosphatase
effect on the in vitro integration reaction ([3]; pretreatment of linear target DNA): no effect on the in vitro integration reaction
